Test results reported in patent US20220023293A1, “EZH2- FGFR INHIBITION IN CANCER” (Stichting Het Nederlands Kanker Instituut-Antoni van …, priority 2018, published 2022).

How the values were obtained:
[1] = test system: BAP1 deficient mesothelioma cells; experiment: short term assay, drug response curve (Alamar blue), 384-well; format: cell-based, mouse; settings: single agent; BNC versus NC derived early passage cell lines; FIG. 4B, 4C
Method: For short term colony formation assay, the mesothelioma cell lines were seeded in 500 cells per well in a 384-well plate. The next day drugs (GSK126, AZD4547, AZD2461, ABT-263) were added in a matrix format at the indicated concentration using HP D300 digital dispenser (HP) and cells were grown in presence of drug(s) or DMSO control for 5 days. Thereafter, 10% v/v Alamar blue was added to the well and incubated at 370 C for 4 hours. The plates were read with Tecan reader. The data were analyzed and plotted for drug response curve.

[2] = test system: FGF7, FGF2 and FGFR2; experiment: gene expression analysis (RNA sequencing) after EZH2 inhibitor treatment; format: cell-based, mouse; settings: GSK126 treated versus DMSO treated Bap1 deficient cells; log 2 expression; FIG. 4E
Method: For gene expression analysis, RNA was isolated from tumor tissue with the Qiagen All prep DNA/RNA kit. Quantification and quality assessment for RNA were performed with a Bioanalyzer (RIN >6.5) (Agilent, Santa Clara, Calif., USA).
Sequencing libraries were constructed with a TruSeq mRNA Library Preparation Kit using poly-A-enriched RNA (Illumina, San Diego, Calif., USA). The samples were run on a HiSeq 2500 Illumina sequencer for cluster generation and sequencing.
For RNA sequencing and expression analysis, Illumina TruSeq mRNA libraries were sequenced with 51 base single reads on a HiSeq2000 using V3 chemistry (Illumina Inc., San Diego). The sequence reads were mapped to the mouse genome (mm10), using TopHat (2.0.12). TopHat was run with default. Reads with mapping quality less than 10 and non-primary alignments were discarded. Remaining reads were counted using HTSeq-cout. Statistical analysis of the differential expression of genes was performed using DESeq2. Genes with False Discovery Rate (FDR) for differential expression lower than 0.05 were considered significant. Batch effect within tumor samples from different source was corrected using ComBat with default options through the Bioconductor sva package 3.10.

Row | Structure (SMILES) | drug response of BAP1 deficient versus proficient mesothelioma cells (dose response curve) [1] | expression of FGF/FGFR pathway genes (FGF7, FGF2, FGFR2) [2]
1 | COc1cc(CCc2cc(NC(=O)c3ccc(N4C[C@@H](C)N[C@@H](C)C4)cc3)n[nH]2)cc(OC)c1 [AZD4547, N-[5-[2-(3,5-dimethoxyphenyl)ethyl]-1H-pyrazol-3-yl]-4-[(3R,5S)-3,5-dimethylpiperazin-1-yl]benzamide] | hypersensitive | –
2 | CC[C@H](C)n1cc(C)c2c(C(=O)NCc3c(C)cc(C)[nH]c3=O)cc(-c3ccc(N4CCNCC4)nc3)cc21 [GSK126, 1-[(2S)-butan-2-yl]-N-[(4,6-dimethyl-2-oxo-1H-pyridin-3-yl)methyl]-3-methyl-6-(6-piperazin-1-ylpyridin-3-yl)indole-4-carboxamide] | hypersensitive | upregulation of FGF/FGFR pathway genes
